Measurements: patent US7786121B2, “Derivatives of hydroxamic acid as metalloproteinase inhibitors” (Vernalis (Oxford) Limited, priority 2003, dated 2010)

Columns and labels:
[1] = test system: IL2-induced peritoneal recruitment of lymphocytes; assay: IL2-induced peritoneal recruitment of lymphocytes in mice; format: in vivo; details: C3H mice
Description: B. Biological Assay: IL2-Induced Peritoneal Recruitment of Lymphocytes in Mice Protocol
C3H Mice (Elevage Janvier) (8 week old, n=6) received IL2 (SPRI, 20 μg/kg, 40 ml/kg, ip) 15 min after administration of the test molecules. Twenty-four hours later, the animals were sacrificed and the lavage of the peritoneal cavity was conducted using 3×5 ml PBS-1 mM EDTA (+4° C.). After centrifugation (10 min at 3000 rpm), the pellet was resuspended in 1 ml PBS. The peritoneal cells were counted using a Beckman/Coulter counter. IL2 was solubilized in saline. The test compounds of the invention were solubilized or suspended in 0.5% carboxymethylcellulose (CMC)/0.25% Tween-20 and orally administered. […]

92 kDa gelatinase (MMP9) = 92 kDa gelatinase (MMP9) (Homo sapiens, UniProt P14780); assay: MMP9 enzyme inhibition assay, coumarin-labelled peptide substrate; format: biochemical; details: recombinant human MMP-9, 37° C., 2 hours; read-out: MMP-9 (nM) inhibitory activity
Description: (§1) Compounds of the invention were tested for inhibitory activity against 92 kDa gelatinase (MMP9) in an assay using a coumarin-labelled peptide substrate, (7-methoxycoumarin-4-yl)acetyl-Pro-Leu-Gly-Leu-(3-[2,4-dinitrophenyl]-L-2,3-diaminopropionyl)-Ala-Arg-NH2 (McaPLGLDpaAR) (Knight et al, FEBS Lett. 1992; 263-266).
(§2) Stock solutions were made up as follows: • Assay Buffer: 100 mM Tris-HCl pH 7.6 containing 100 mM NaCl, 10 mM CaCl2, and 0.05% Brij 35 • Substrate: 0.4 mM McaPLGLDpaAR (from Bachem) (0.437 mg/ml) stock solution in 100% • DMSO (stored at −20° C.). Dilute to 8 μM in assay buffer. • Enzyme: Recombinant human 92 kDa gelatinase (MMP-9; APMA (4-aminophenylmercuric acetate)-activated if necessary) appropriately diluted in assay buffer.
(§3) Test Compounds were prepared initially as 10 mM compound solution in 100% DMSO, diluted to 1 mM in 100% DMSO, then serially diluted 3-fold in 100% DMSO across columns 1-10 of a 96-well microtitre plate Assay concentration range, 100 μM (column 1) to 5.1 nM (column 10)
(§4) The assay was performed in a total volume of 100 μl upper well in 96-well microtitre plates. Activated enzyme (20 μl) was added to the wells followed by 20 μl of assay buffer. Appropriate concentrations of test compounds dissolved in 10 μl of DMSO were then added followed by 50 μl of McaPLGLDpaAR (8 μM, prepared by dilution of DMSO stock in assay buffer). For each assay ten concentrations of test compound were examined in duplicate. Control wells lack either enzyme or test compound. The reactions were incubated at 37° C. for 2 hours. The fluorescence at 405 nm was measured immediately with an SLT Fluostar fluorometer (SLT Labinstruments GmbH, Grödig, Austria) using 320 nm excitation, without stopping the reaction.
(§5) The effect of the test compound was determined from the dose response curve generated by the 10 duplicate concentrations of inhibitor. The IC50 (the concentration of compound required to give a 50% decrease in enzyme activity) was obtained by fitting data to the equation, Y=a+((b−a)/(1+(c/X)^d)). (Y=inhibition achieved for a particular dose; X=the dose in nM; a=minimum y or zero % inhibition; b=maximum y or 100% inhibition; c=is the IC50; d=is the slope). The result was rounded to one significant figure.

metalloelastase (MMP12) = metalloelastase (MMP12) (Homo sapiens, UniProt P39900); assay: MMP12 enzyme inhibition assay, coumarin-labelled peptide substrate; format: biochemical; details: read-out: MMP-12 (nM) inhibitory activity
Description: as §2, §3, §4, §5
as §1, with “metalloelastase (MMP12)” for “92 kDa gelatinase (MMP9)”, “263-266). The protocol for this assay was as described for the MMP9 assay above.” for “263-266).”

MMP-2 = target: T1, MMP-2 (Homo sapiens, UniProt P08253); assay: MMP-2 enzyme inhibition; format: biochemical; details: read-out: MMP-2 (nM) inhibitory activity
T1 sequence (P08253 110-660): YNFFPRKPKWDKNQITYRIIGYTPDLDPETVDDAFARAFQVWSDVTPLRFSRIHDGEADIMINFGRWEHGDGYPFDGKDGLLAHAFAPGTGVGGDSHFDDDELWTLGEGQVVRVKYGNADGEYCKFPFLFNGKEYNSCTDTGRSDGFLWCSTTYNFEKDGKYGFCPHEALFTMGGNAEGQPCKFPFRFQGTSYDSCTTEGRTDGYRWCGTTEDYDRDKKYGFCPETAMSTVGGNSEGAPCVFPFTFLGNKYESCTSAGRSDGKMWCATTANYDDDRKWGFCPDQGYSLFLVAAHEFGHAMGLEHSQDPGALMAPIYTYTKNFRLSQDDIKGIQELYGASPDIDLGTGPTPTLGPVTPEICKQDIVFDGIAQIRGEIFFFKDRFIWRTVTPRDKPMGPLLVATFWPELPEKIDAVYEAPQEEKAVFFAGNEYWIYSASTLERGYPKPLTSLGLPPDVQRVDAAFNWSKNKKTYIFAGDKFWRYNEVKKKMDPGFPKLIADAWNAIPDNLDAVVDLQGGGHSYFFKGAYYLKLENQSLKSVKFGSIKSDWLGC
Description: For instance the inhibitory activities of some of the compounds of the examples against MMP-12, MMP-9, MMP-2 and MMP-1 are set out in the following table: […]

collagenase (MMP1) = target: T2, collagenase (MMP1) (Homo sapiens, UniProt P03956); assay: MMP1 enzyme inhibition assay, coumarin-labelled peptide substrate; format: biochemical; details: read-out: MMP-1 (nM) inhibitory activity
T2 sequence (P03956 100-469): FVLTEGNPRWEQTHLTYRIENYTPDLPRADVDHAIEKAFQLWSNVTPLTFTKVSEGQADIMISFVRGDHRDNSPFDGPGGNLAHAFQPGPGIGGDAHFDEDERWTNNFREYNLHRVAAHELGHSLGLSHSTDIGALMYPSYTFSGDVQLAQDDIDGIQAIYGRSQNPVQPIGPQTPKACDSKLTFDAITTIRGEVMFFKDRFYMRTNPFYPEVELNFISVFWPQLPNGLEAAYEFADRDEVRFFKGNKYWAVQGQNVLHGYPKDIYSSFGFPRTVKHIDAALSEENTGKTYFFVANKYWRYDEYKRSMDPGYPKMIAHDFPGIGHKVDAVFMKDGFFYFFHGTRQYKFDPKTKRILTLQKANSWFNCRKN
Description: as §2, §3, §4, §5
as §1, with “collagenase (MMP1)” for “92 kDa gelatinase (MMP9)”, “263-266). The protocol for this assay was as described for the MMP9 assay above.” for “263-266).”

[2] = 3 mg/kg po, 15 min before IL2 ip, cells counted 24 h later

metalloelastase (MMP12), sequence (P39900 106-470): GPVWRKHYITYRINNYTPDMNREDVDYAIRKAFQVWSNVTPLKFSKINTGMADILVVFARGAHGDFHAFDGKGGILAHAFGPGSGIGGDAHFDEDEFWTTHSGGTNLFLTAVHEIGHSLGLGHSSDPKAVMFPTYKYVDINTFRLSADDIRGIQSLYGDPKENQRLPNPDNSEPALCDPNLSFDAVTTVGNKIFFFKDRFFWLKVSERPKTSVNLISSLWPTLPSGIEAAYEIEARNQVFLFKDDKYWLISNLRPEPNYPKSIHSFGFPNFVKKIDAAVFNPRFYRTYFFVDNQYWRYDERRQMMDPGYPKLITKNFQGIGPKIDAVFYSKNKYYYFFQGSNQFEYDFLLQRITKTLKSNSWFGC
92 kDa gelatinase (MMP9), sequence (P14780 107-707 limits assumed): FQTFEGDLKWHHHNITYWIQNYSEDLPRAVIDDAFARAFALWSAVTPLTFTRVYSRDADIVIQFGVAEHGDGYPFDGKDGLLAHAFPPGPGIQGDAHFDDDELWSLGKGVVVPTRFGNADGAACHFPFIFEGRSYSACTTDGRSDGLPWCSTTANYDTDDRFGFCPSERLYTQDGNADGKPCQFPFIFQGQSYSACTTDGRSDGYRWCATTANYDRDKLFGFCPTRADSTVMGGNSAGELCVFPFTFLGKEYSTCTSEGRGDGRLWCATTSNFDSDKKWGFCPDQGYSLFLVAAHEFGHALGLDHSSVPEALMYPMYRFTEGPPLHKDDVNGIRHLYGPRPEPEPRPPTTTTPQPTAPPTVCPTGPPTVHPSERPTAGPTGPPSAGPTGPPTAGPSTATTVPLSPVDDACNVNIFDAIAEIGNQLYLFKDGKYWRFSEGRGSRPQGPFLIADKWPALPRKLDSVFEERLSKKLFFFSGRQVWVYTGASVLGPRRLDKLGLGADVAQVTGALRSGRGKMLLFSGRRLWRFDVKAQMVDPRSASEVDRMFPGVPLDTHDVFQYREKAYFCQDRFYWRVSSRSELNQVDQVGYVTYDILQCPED

IC50 (92 kDa gelatinase (MMP9)) [nM]	IC50 (metalloelastase (MMP12)) [nM]	IC50 (MMP-2) [nM]	IC50 (collagenase (MMP1)) [nM]	SMILES	% Inhibition of IL2-induced peritoneal recruitment ([1]; 1 mg/kg sc (reference compound)) [%]	% Inhibition of IL2-induced peritoneal recruitment [1, 2] [%]
				C[C@@H]1C[C@H]2[C@@H]3CCC4=CC(=O)C=C[C@]4(C)[C@@]3(F)[C@@H](O)C[C@]2(C)[C@@]1(O)C(=O)CO [Dexamethazone, Dexamethasone, reference compound]	76	
< 100	< 100	< 100	> 10000	CCOc1ccc(CCC[C@@H](C(=O)N2CCN(c3ccc(OC)cc3)CC2)[C@H](O)C(=O)NO)cc1 [Example 4, 6-(4-ethoxy-phenyl)-2S-hydroxy-3R-[4-(4-methoxy-phenyl)-piperazine-1-carbonyl]-hexanoic acid hydroxyamide]		34
< 100	< 100	< 100	> 10000	CCOc1ccc(CCC[C@@H](C(=O)N2CCN(c3ccccn3)CC2)[C@H](O)C(=O)NO)cc1 [Example 5, 6-(4-ethoxy-phenyl)-2S-hydroxy-3R-(4-pyridin-2-yl-piperazine-1-carbonyl)-hexanoic acid hydroxyamide]		50
100 to 1000	< 100	100 to 1000	> 10000	CCOc1ccc(CCC[C@@H](C(=O)N2CCN(c3ccncc3)CC2)[C@H](O)C(=O)NO)cc1 [Example 6, 6-(4-ethoxy-phenyl)-2S-hydroxy-3R-(4-pyridin-4-yl-piperazine-1-carbonyl)-hexanoic acid hydroxyamide]		33
< 100	< 100	< 100	> 10000	CCOc1ccc(CCC[C@@H](C(=O)N2CCN(Cc3ccc4c(c3)OCO4)CC2)[C@H](O)C(=O)NO)cc1 [Example 12, 3R-(4-benzo[1,3]dioxol-5-ylmethyl-piperazine-1-carbonyl)-6-(4-ethoxy-phenyl)-2S-hydroxy-hexanoic acid hydroxyamide]		
< 100	< 100	< 100	> 10000	CCOc1ccc(CCC[C@@H](C(=O)N2CCN(Cc3ccncc3)CC2)[C@H](O)C(=O)NO)cc1 [Example 13, 6-(4-ethoxy-phenyl)-2S-hydroxy-3R-(4-pyridin-4-ylmethyl-piperazine-1-carbonyl)-hexanoic acid hydroxyamide]		47
< 100	< 100	< 100	> 10000	CCOc1ccc(CCC[C@@H](C(=O)N2CCN(Cc3ccccc3)CC2)[C@H](O)C(=O)NO)cc1 [Example 14, 6-(4-ethoxy-phenyl)-2S-hydroxy-3R-(4-benzylpiperazine-1-carbonyl)-hexanoic acid hydroxyamide]		30
< 100	< 100	< 100	> 10000	CCOc1ccc(CCC[C@@H](C(=O)N2CCN(c3ccccc3F)CC2)[C@H](O)C(=O)NO)cc1 [Example 20, 6-(4-ethoxy-phenyl)-2S-hydroxy-3R-[4-(2-fluoro-phenyl)-piperazine-1-carbonyl]-hexanoic acid hydroxyamide]		57
< 100	< 100	< 100	> 10000	CCOc1ccc(CCC[C@@H](C(=O)N2CCN(c3ccccc3F)CC2)[C@H](OC)C(=O)NO)cc1 [Example 62, 6-(4-ethoxy-phenyl)-2S-methoxy-3R-[4-(2-fluoro-phenyl)-piperazine-1-carbonyl]-hexanoic acid hydroxyamide]		
